Reference: ChEMBL document CHEMBL4699634, “Series of Novel and Highly Potent Cyclic Peptide PCSK9 Inhibitors Derived from an mRNA Display Screen and Optimized via Structure-Based Design” (J Med Chem, 2020)
Numbered stars: 1 amine (or outer) side, 2 acyl side, 3 side chain; on linkers, the order of the positions; unused ones are H or OH. Bridge positions count the residues as written; N and C are the ends. Square brackets hold non-standard residues; d marks the D form. Peptide text beside a SMILES is read from it. * marks the point of attachment. Trp(5-F) = N[C@@H](Cc1c[nH]c2ccc(F)cc12)C(=O)O; Nle(6-COOH) = N[C@@H](CCCCC(=O)O)C(=O)O; X1 = O=C(CCSCc1cccc(CSCCN[*:1])c1)[*:2]; mXylylene = c1cc(C[*:1])cc(C[*:2])c1; Asu = N[C@@H](CCCCCC(=O)O)C(=O)O; PEG4 = NCCOCCOCCOCCOCCC(=O)O; αMeP = C[C@@]1(C(=O)O)CCCN1; Orn = NCCC[C@H](N)C(=O)O; X2 = COCCOCCOCCOCCC(=O)*; Nva = CCC[C@H](N)C(=O)O; Mpa = O=C(O)CCS

Columns and labels:
PCSK9/LDLR = PCSK9/LDLR (Homo sapiens, UniProt Q8NBP7); assay: Inhibition of avi-tagged-biotinylated human PCSK9 interaction with His-tagged human LDLR EGFa domain by LANCE Ulight Streptavidin based TR-FRET assay; format: protein assay
Chain of PCSK9/LDLR (Q8NBP7 31-152 limits assumed): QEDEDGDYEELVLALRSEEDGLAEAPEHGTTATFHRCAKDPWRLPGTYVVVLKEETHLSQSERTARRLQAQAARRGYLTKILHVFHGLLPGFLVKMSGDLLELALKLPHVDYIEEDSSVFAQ
Chain of PCSK9/LDLR (Q8NBP7 153-692 limits assumed): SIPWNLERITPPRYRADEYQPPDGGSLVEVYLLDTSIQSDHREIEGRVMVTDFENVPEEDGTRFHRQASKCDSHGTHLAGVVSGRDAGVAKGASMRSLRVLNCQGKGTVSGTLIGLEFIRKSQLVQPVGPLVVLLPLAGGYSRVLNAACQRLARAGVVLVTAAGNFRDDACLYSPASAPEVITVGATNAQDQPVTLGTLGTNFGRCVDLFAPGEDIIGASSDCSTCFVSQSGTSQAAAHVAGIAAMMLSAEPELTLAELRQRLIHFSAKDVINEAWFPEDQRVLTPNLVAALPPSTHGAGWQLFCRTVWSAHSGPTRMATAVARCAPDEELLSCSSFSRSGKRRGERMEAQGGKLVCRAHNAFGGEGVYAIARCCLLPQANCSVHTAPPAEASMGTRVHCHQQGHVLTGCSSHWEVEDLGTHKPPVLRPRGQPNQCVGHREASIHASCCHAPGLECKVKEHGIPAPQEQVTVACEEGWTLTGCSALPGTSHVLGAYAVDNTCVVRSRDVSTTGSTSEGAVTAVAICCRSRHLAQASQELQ
Chain of PCSK9/LDLR (P01130 22-860 partner limits assumed): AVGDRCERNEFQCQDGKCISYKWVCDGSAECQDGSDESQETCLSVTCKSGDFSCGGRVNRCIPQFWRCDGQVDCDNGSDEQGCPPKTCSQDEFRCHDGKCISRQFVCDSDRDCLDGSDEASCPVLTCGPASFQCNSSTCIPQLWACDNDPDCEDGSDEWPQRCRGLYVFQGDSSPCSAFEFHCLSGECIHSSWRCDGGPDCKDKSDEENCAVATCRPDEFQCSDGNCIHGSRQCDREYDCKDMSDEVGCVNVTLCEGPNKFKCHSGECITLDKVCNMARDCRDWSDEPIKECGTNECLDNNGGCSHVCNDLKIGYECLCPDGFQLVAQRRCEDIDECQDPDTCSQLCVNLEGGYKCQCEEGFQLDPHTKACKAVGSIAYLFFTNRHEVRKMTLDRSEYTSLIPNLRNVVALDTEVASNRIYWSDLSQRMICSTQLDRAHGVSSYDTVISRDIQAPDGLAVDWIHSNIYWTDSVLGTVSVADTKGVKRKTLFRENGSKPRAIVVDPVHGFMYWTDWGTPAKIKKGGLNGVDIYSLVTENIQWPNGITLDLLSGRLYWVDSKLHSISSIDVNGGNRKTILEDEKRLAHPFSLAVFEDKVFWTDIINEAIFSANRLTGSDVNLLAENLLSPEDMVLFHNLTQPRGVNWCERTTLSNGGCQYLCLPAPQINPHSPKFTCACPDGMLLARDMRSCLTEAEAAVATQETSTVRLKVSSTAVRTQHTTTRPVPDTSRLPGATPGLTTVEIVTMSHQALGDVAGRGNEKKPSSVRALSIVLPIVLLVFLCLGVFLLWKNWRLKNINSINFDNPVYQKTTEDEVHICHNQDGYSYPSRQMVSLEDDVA

[1] = target: Proprotein convertase subtilisin/kexin type 9 (Homo sapiens, UniProt Q8NBP7); assay: Inhibition of AlexaFluor647-tagged cyclic peptide binding to avi-tagged-biotinylated human PCSK9 measured after 2 hrs by Lance Streptavidin Europium based FRET assay
Chain of Proprotein convertase subtilisin/kexin type 9 (Q8NBP7 31-152 limits assumed): as the sequence (Q8NBP7 31-152 limits assumed) above
Chain of Proprotein convertase subtilisin/kexin type 9 (Q8NBP7 153-692 limits assumed): as the sequence (Q8NBP7 153-692 limits assumed) above

[2] = Half life in C57BL/6 mouse whole blood at 100 uM by LC-MS/MS analysis; format: ADME, tissue-based
[3] = target: Chymotrypsin-like elastase family member 1 (Sus scrofa, UniProt P00772); assay: Enzymatic stability assessed as porcine type 4 pancreatic elastase-mediated compound hydrolysis by measuring parent compound remaining at 100 uM incubated for 1 hr by LC-MS/MS analysis; format: ADME; conditions: pig, read-out: Stabilty
Chain of Chymotrypsin-like elastase family member 1 (P00772 whole entry): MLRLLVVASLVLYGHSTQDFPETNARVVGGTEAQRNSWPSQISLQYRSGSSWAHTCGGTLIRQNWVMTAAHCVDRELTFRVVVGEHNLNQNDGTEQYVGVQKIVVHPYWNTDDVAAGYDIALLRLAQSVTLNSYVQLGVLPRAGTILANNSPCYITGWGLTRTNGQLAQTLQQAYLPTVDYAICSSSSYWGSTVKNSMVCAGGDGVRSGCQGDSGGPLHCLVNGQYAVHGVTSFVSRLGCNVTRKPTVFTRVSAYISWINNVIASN

Chymotrypsinogen A = Chymotrypsinogen A (Bos taurus, UniProt P00766); assay: Enzymatic stability assessed as bovine pancreatic alpha-chymotrypsin-mediated compound hydrolysis by measuring parent compound remaining at 100 uM incubated for 1 hr by LC-MS/MS analysis; format: ADME; conditions: cattle, read-out: Stabilty
[4] = Enzymatic stability assessed as porcine pepsin-mediated compound hydrolysis by measuring parent compound remaining at 100 uM incubated for 1 hr by LC-MS/MS analysis; format: ADME, Sus scrofa; conditions: pig, read-out: Stabilty
[5] = Enzymatic stability assessed as bovine pancreatic trypsin-mediated compound hydrolysis by measuring parent compound remaining at 100 uM incubated for 1 hr by LC-MS/MS analysis; format: ADME, Bos taurus; conditions: cattle, read-out: Stabilty
[6] = Cytotoxicity against Wistar rat isolated peritoneal cells assessed as reduction in cell viability up to 60 uM measured after 30 mins; format: cell-based; conditions: peritoneal macrophage cell, 0.5 h
[7] = Induction of mast cell degranulation in Wistar rat isolated peritoneal cells assessed as effect on histamine release measured after 30 mins; format: tissue-based
[8] = Protein binding in mouse plasma at 2.5 uM measured after 4 hrs by equilibrium dialysis based LC-MS/MS analysis; format: ADME, cell-free; conditions: read-out: PPB (converted)
[9] = AUC (0 to X) in C57BL/6 mouse at 1 mg/kg, iv by LC-MS/MS analysis; format: ADME, organism-based; design: dose 1 mg/kg; conditions: in vivo
[10] = Volume of distribution at steady state in C57BL/6 mouse at 1 mg/kg, iv by LC-MS/MS analysis; format: ADME, organism-based; conditions: in vivo, read-out: Vdss
[11] = Half life in C57BL/6 mouse at 1 mg/kg, iv by LC-MS/MS analysis; format: ADME, organism-based; conditions: in vivo
[12] = AUC (0 to infinity) in C57BL/6 mouse at 1 mg/kg, iv by LC-MS/MS analysis; format: ADME, organism-based; design: route intravenous, time infinity, dose 1 mg/kg; conditions: mouse, in vivo
[13] = Half life in cynomolgus monkey whole blood at 100 uM by LC-MS/MS analysis; format: ADME, tissue-based, Macaca fascicularis
[14] = Rattus norvegicus, Wistar, Mast cell, 0.5 h, read-out: EC50

Row | Compound | Ki (PCSK9/LDLR) [nM] | Ki [1] [nM] | half-life at 100 µM [2] [h] | remaining at 1 h, 100 µM [3] [%] | remaining at 1 h, 100 µM (Chymotrypsinogen A) [%] | remaining at 1 h, 100 µM [4] [%] | remaining at 1 h, 100 µM [5] [%] | Activity [6] | EC50 ([7]; mast cell) | further results
1 | C[C@@H](O)[C@@H]1NC(=O)[C@@H]2CCCN2C(=O)[C@H](Cc2c[nH]c3ccc(F)cc23)NC(=O)[C@H](Cc2c[nH]c3ccc(F)cc23)NC(=O)CNC(=O)[C@H](CCCCN)NC(=O)CCSCc2cccc(c2)CSC[C@@H](C(N)=O)NC(=O)[C@]2(C)CCCN2C(=O)[C@H](Cc2ccc(O)cc2)NC1=O ([Mpa]KG[Trp(5-F)][Trp(5-F)]PTY[αMeP]C-NH2; linker 1-10 via mXylylene) | 23.9 | 11.7 | > 6 | 51 | 91 | 95 | 1.9 |  |  | 
2 | C[C@H]1NC(=O)[C@H](CCC(=O)O)NC(=O)CCSCc2cccc(c2)CSCCNC(=O)[C@]2(C)CCCN2C(=O)[C@H](Cc2ccc(O)cc2)NC(=O)[C@H](Cc2cnc[nH]2)NC(=O)[C@H](CC(=O)O)NC(=O)[C@H](Cc2c[nH]c3ccc(F)cc23)NC(=O)[C@H](Cc2c[nH]c3ccc(F)cc23)NC1=O | 202 |  |  |  |  |  |  | Non-Toxic |  | EC50 [7, 14]: 1000 nM
3 | C[C@H]1NC(=O)[C@H](CCCCN)NC(=O)CCSCc2cccc(c2)CSC[C@@H](C(N)=O)NC(=O)[C@]2(C)CCCN2C(=O)[C@H](Cc2ccc(O)cc2)NC(=O)[C@H]([C@@H](C)O)NC(=O)[C@@H]2C[C@H](F)CN2C(=O)[C@H](Cc2c[nH]c3ccc(F)cc23)NC(=O)[C@H](Cc2c[nH]c3ccc(F)cc23)NC1=O |  | 2.1 | > 6 | 100 | 100 | 98.1 | 95.9 | Non-Toxic |  | fraction unbound at 4 h, 2.5 µM [8]: 0.0167; AUC [9]: 0.171 µM·h; EC50 [7, 14]: 3120 nM; Vd [10]: 0.37 L/kg; half-life [11]: 1.6 h; AUC [12]: 0.17152 µM·h
4 | CCC[C@@H]1NC(=O)CCSCc2cccc(c2)CSC[C@@H](C(N)=O)NC(=O)[C@]2(C)CCCN2C(=O)[C@H](Cc2ccc(O)cc2)NC(=O)[C@H](Cc2cnc[nH]2)NC(=O)[C@H](CC(=O)O)NC(=O)[C@H](Cc2c[nH]c3ccc(F)cc23)NC(=O)[C@H](Cc2c[nH]c3ccc(F)cc23)NC(=O)CNC1=O ([Mpa][Nva]G[Trp(5-F)][Trp(5-F)]DHY[αMeP]C-NH2; linker 1-10 via mXylylene) | 94.7 | 35.2 |  |  |  |  |  | Non-Toxic |  | EC50 [7, 14]: 7000 nM
5 | COc1ccc(C[C@@H]2NC(=O)[C@H](Cc3cnc[nH]3)NC(=O)[C@H](CC(=O)O)NC(=O)[C@H](Cc3c[nH]c4ccc(F)cc34)NC(=O)[C@H](Cc3c[nH]c4ccc(F)cc34)NC(=O)[C@@H](C)NC(=O)[C@H](CNC(=O)COCCOCCN)NC(=O)CCSCc3cccc(c3)CSCCNC(=O)[C@]3(C)CCCN3C2=O)cc1 |  | 8.2 |  |  |  |  |  | Non-Toxic | Non-Toxic | 
6 | COc1ccc(C[C@@H]2NC(=O)[C@H](Cc3cnc[nH]3)NC(=O)[C@H](CC(=O)O)NC(=O)[C@H](Cc3c[nH]c4ccc(F)cc34)NC(=O)[C@H](Cc3c[nH]c4ccc(F)cc34)NC(=O)[C@@H](C)NC(=O)[C@H](CCCCCC(=O)O)NC(=O)CCSCc3cccc(c3)CSCCNC(=O)[C@]3(C)CCCN3C2=O)cc1 (cyclo([Asu][dA][Trp(5-F)][Trp(5-F)]DHY(Me)[αMeP][X1])) |  | 80.7 |  |  |  |  |  | Non-Toxic | Non-Toxic | 
7 | COCCOCCOCCOCCC(=O)NCCCC[C@@H]1NC(=O)CCSCc2cccc(c2)CSC[C@@H](C(N)=O)NC(=O)[C@]2(C)CCCN2C(=O)[C@H](Cc2ccc(O)cc2)NC(=O)[C@H](Cc2cnc[nH]2)NC(=O)[C@H](CC(=O)O)NC(=O)[C@H](Cc2c[nH]c3ccc(F)cc23)NC(=O)[C@H](Cc2c[nH]c3ccc(F)cc23)NC(=O)CNC1=O ([Mpa]K(X2)G[Trp(5-F)][Trp(5-F)]DHY[αMeP]C-NH2; linker 1-10 via mXylylene) |  | 9.4 | > 6 | 96.3 | 39.5 | 98.6 | 96 | Non-Toxic | Non-Toxic | 
8 | C[C@@]12CCCN1C(=O)[C@H](Cc1ccc(O)cc1)NC(=O)[C@H](Cc1cnc[nH]1)NC(=O)[C@H](CC(=O)O)NC(=O)[C@H](Cc1c[nH]c3ccc(F)cc13)NC(=O)[C@H](Cc1c[nH]c3ccc(F)cc13)NC(=O)CNC(=O)[C@H](CCCCNC(=O)CCOCCOCCOCCOCCN)NC(=O)CCSCc1cccc(c1)CSC[C@@H](C(N)=O)NC2=O ([Mpa]K(PEG4)G[Trp(5-F)][Trp(5-F)]DHY[αMeP]C-NH2; linker 1-10 via mXylylene) |  | 10.7 |  |  |  |  |  | Non-Toxic | Non-Toxic | 
9 | COc1ccc(C[C@@H]2NC(=O)[C@H]([C@@H](C)OC)NC(=O)[C@@H]3CCC(=O)NCc4cccc(c4)C[C@H](NC(=O)[C@@H](C)NC(=O)[C@H](C)NC(=O)CCSCc4cccc(c4)CSCCNC(=O)[C@]4(C)CCCN4C2=O)C(=O)N[C@@H](Cc2c[nH]c4ccc(F)cc24)C(=O)N3C)cc1 |  | 10.6 | > 6 | 98.8 | 95.7 | 94.4 | 97.6 |  |  | half-life at 100 µM [13]: > 6 h
10 | CO[C@H](C)[C@@H]1NC(=O)[C@@H]2CCCN2C(=O)[C@H](Cc2c[nH]c3ccc(F)cc23)NC(=O)[C@H](Cc2c[nH]c3ccc(F)cc23)NC(=O)CNC(=O)[C@H](CCCCN)NC(=O)CCSCc2cccc(c2)CSC[C@@H](C(N)=O)NC(=O)[C@]2(C)CCCN2C(=O)[C@H](Cc2ccc(O)cc2)NC1=O ([Mpa]KG[Trp(5-F)][Trp(5-F)]PT(Me)Y[αMeP]C-NH2; linker 1-10 via mXylylene) |  | 10.1 | 1.03 | 56 | 91 | 99.5 | 1.2 |  |  | half-life at 100 µM [13]: 3.1 h
11 | COc1ccc(C[C@@H]2NC(=O)[C@H](Cc3cnc[nH]3)NC(=O)[C@H](CC(=O)O)NC(=O)[C@H](Cc3c[nH]c4ccc(F)cc34)NC(=O)[C@H](Cc3c[nH]c4ccc(F)cc34)NC(=O)[C@@H](C)NC(=O)[C@H](CCCCO)NC(=O)CCSCc3cccc(c3)CSCCNC(=O)[C@]3(C)CCCN3C2=O)cc1 | 78.9 | 39 |  |  |  |  |  | Non-Toxic | Non-Toxic | 
12 | COc1ccc(C[C@@H]2NC(=O)[C@H](Cc3cnc[nH]3)NC(=O)[C@H](CC(=O)O)NC(=O)[C@H](Cc3c[nH]c4ccc(F)cc34)NC(=O)[C@H](Cc3c[nH]c4ccc(F)cc34)NC(=O)[C@@H](C)NC(=O)[C@H](CCCCN(C)C)NC(=O)CCSCc3cccc(c3)CSCCNC(=O)[C@]3(C)CCCN3C2=O)cc1 |  | 4.2 |  |  |  |  |  | Non-Toxic |  | EC50 [7, 14]: 10000 nM
13 | C[C@@]12CCCN1C(=O)[C@H](Cc1ccc(O)cc1)NC(=O)[C@H](Cc1cnc[nH]1)NC(=O)[C@H](CC(=O)O)NC(=O)[C@H](Cc1c[nH]c3ccc(F)cc13)NC(=O)[C@H](Cc1c[nH]c3ccc(F)cc13)NC(=O)CNC(=O)[C@H](CCCCN)NC(=O)CCSCc1cccc(c1)CSCCNC2=O (cyclo(DHY[αMeP][X1]KG[Trp(5-F)][Trp(5-F)])) | 26.6 | 4.3 | 5.56 | 46.1 | 7.4 | 99.1 | 0.8 |  |  | 
14 | C[C@@]12CCCN1C(=O)[C@H](Cc1ccc(O)cc1)NC(=O)[C@H](Cc1cnc[nH]1)NC(=O)[C@H](CC(=O)O)NC(=O)[C@H](Cc1c[nH]c3ccc(F)cc13)NC(=O)[C@H](Cc1c[nH]c3ccc(F)cc13)NC(=O)CNC(=O)[C@H](CCCN)NC(=O)CCSCc1cccc(c1)CSC[C@@H](C(N)=O)NC2=O ([Mpa][Orn]G[Trp(5-F)][Trp(5-F)]DHY[αMeP]C-NH2; linker 1-10 via mXylylene) | 132 | 14.3 |  |  |  |  |  | Non-Toxic | Non-Toxic | 
15 | C[C@@H]1NC(=O)CCSCc2cccc(c2)CSC[C@@H](C(N)=O)NC(=O)[C@@H]2CCCN2C(=O)[C@H](Cc2ccc(O)cc2)NC(=O)[C@H](Cc2cnc[nH]2)NC(=O)[C@H](CC(=O)O)NC(=O)[C@H](Cc2c[nH]c3ccc(F)cc23)NC(=O)[C@H](Cc2c[nH]c3ccc(F)cc23)NC(=O)CNC1=O ([Mpa]AG[Trp(5-F)][Trp(5-F)]DHYPC-NH2; linker 1-10 via mXylylene) | 392 |  | 1.49 | 54.9 | 15.5 | 92.5 | 1 |  |  | 
16 | COc1ccc(C[C@@H]2NC(=O)[C@H](Cc3cnc[nH]3)NC(=O)[C@H](CC(=O)O)NC(=O)[C@H](Cc3c[nH]c4ccc(F)cc34)NC(=O)[C@H](Cc3c[nH]c4ccc(F)cc34)NC(=O)[C@@H](C)NC(=O)[C@H](CCCCC(=O)O)NC(=O)CCSCc3cccc(c3)CSCCNC(=O)[C@]3(C)CCCN3C2=O)cc1 (cyclo(DHY(Me)[αMeP][X1][Nle(6-COOH)][dA][Trp(5-F)][Trp(5-F)])) |  | 85.8 |  |  |  |  |  | Non-Toxic | Non-Toxic | 
